# In PubChem BioAssay AID2060331 (Molecular Pharmacology Branch, DTP, NCI, 2025):
# Tested on: Hs578T multi-cell spheroids, viability
# Assay: Anticancer human tumor Hs578T cell line growth inhibition [IpAb];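 also: drug exposure lasted 7 days before readout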
# Conditions: for IC50: curve of first compound; for viability, T/C: stronger effect = lower value
# Outline: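 Spheroids of 60% malignant cells, 25% HUVEC and 15% MSC were exposed to targeted agents combined with ipatasertib or abemaciclib. Doses started at or near clinical Cmax (10 microM when unknown) and fell in half-log steps.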
compound,measurement,setting,value
CC1(C)CCC(CN2CCN(c3ccc(C(=O)NS(=O)(=O)c4ccc(NCC5CCOCC5)c([N+](=O)[O-])c4)c(Oc4cnc5[nH]ccc5c4)c3)CC2)=C(c2ccc(Cl)cc2)C1 + CCN1CCN(Cc2ccc(Nc3ncc(F)c(-c4cc(F)c5nc(C)n(C(C)C)c5c4)n3)nc2)CC1,IC50,second compound 0.01 µM,5.96 µM
same,IC50,second compound 0.0316 µM,5.58 µM
same,IC50,second compound 0.1 µM,5.5 µM
same,IC50,second compound 0.316 µM,5.71 µM
same,IC50,second compound 1 µM,6.84 µM
same,"viability, T/C","second compound 0.01 µM, first compound 0.0316 µM",93.3%
same,"viability, T/C","second compound 0.01 µM, first compound 0.1 µM",107%
same,"viability, T/C","second compound 0.01 µM, first compound 0.316 µM",103%
same,"viability, T/C","second compound 0.01 µM, first compound 1 µM",99.8%
same,"viability, T/C","second compound 0.01 µM, first compound 3.16 µM",90.4%
same,"viability, T/C","second compound 0.01 µM, first compound 10 µM",16.8%
same,"viability, T/C","second compound 0.0316 µM, first compound 0.0316 µM",96.4%
same,"viability, T/C","second compound 0.0316 µM, first compound 0.1 µM",97%
same,"viability, T/C","second compound 0.0316 µM, first compound 0.316 µM",98.1%
same,"viability, T/C","second compound 0.0316 µM, first compound 1 µM",91.1%
same,"viability, T/C","second compound 0.0316 µM, first compound 3.16 µM",81%
same,"viability, T/C","second compound 0.0316 µM, first compound 10 µM",18.6%
same,"viability, T/C","second compound 0.1 µM, first compound 0.0316 µM",87.2%
same,"viability, T/C","second compound 0.1 µM, first compound 0.1 µM",95.3%
same,"viability, T/C","second compound 0.1 µM, first compound 0.316 µM",84.6%
same,"viability, T/C","second compound 0.1 µM, first compound 1 µM",90.9%
same,"viability, T/C","second compound 0.1 µM, first compound 3.16 µM",76.7%
same,"viability, T/C","second compound 0.1 µM, first compound 10 µM",20.8%
same,"viability, T/C","second compound 0.316 µM, first compound 0.0316 µM",86.3%
same,"viability, T/C","second compound 0.316 µM, first compound 0.1 µM",89.1%
same,"viability, T/C","second compound 0.316 µM, first compound 0.316 µM",80.6%
same,"viability, T/C","second compound 0.316 µM, first compound 1 µM",87.4%
same,"viability, T/C","second compound 0.316 µM, first compound 3.16 µM",80.2%
same,"viability, T/C","second compound 0.316 µM, first compound 10 µM",21.3%
same,"viability, T/C","second compound 1 µM, first compound 0.0316 µM",96.5%
same,"viability, T/C","second compound 1 µM, first compound 0.1 µM",98.2%
same,"viability, T/C","second compound 1 µM, first compound 0.316 µM",91.8%
same,"viability, T/C","second compound 1 µM, first compound 1 µM",96.7%
same,"viability, T/C","second compound 1 µM, first compound 3.16 µM",101%
same,"viability, T/C","second compound 1 µM, first compound 10 µM",26.9%
